A short description of data set [1]: Selectivity index, ratio of IC50 for African green monkey Vero cells to IC50 for antiviral activity against SARS-CoV 2 nCoV-2019BetaCoV/Wuhan/WIV04/2019. In kind it is toxicity. As to conditions: read-out: Ratio IC50.
Data set [2] in a line: Cytotoxicity against African green monkey Vero cells by CCK8 assay method. In kind it is toxicity, cell-based. The following applies: chlorocebus sabaeus.
Data set [3] deals with SARS-CoV-2. In words: Antiviral activity against SARS-CoV 2 nCoV-2019BetaCoV/Wuhan/WIV04/2019 infected in african green monkey Vero E6 cells measured after 48 hrs. In kind it is functional, organism-based. The following applies: Severe acute respiratory syndrome coronavirus 2, nCoV-2019BetaCoV/Wuhan/WIV04/2019, Vero C1008, 48 h.
Data set [4] relates to SARS-CoV-2. Briefly: Antiviral activity against SARS-CoV 2 infected in african green monkey Vero E6 cells by immunofluorescence assay. The data set is classed as functional, organism-based. The following applies: Severe acute respiratory syndrome coronavirus 2, Vero C1008.

In general, CC50 refers to the concentration at which the toxic effect on the cells reaches its halfway point. Broadly, the EC50 is the midpoint of the concentration-response curve. As a reminder, the IC50 is the point on the concentration scale where inhibition reaches its midpoint.

As for `NC(=O)c1ncn([C@@H]2O[C@H](CO)[C@@H](O)[C@H]2O)n1` [RIBAVIRIN], the selectivity ratio in data set [1] was greater than 3.65. In data set [2], this compound gave a CC50 greater than 400 µM. This compound had an EC50 with SARS-CoV-2 [3] of 110 µM.

`CCN(CC)CCOc1ccc2c(c1)C(=O)c1cc(OCCN(CC)CC)ccc1-2` [TILORONE] had an IC50 in the data set with SARS-CoV-2 [4] of 4.09 µM.
